The values below come from ChEMBL document CHEMBL1139218, “Cytotoxic benzo[j]fluoranthene metabolites from Hypoxylon truncatum IFB-18, an endophyte of Artemisia annua” (J Nat Prod, 2007).

The nature of this experiment: Cytotoxicity against SW1116 cells by MTT colometric method. As to conditions: Homo sapiens, SW 1116. The class given is functional, cell-based.
By IC50 is commonly meant the point on the concentration scale where inhibition reaches its midpoint. For the compound `O=C1C[C@H]2[C@@H]3CCC(=O)c4c(O)ccc(c43)[C@]2(O)c2cccc(O)c21` [DALDINONE C], the IC50 turned out to be 49.5 µM.
With `CO[C@H]1C[C@H]2[C@@H]3CCC(=O)c4c(O)ccc(c43)[C@]2(O)c2cccc(O)c21` [DALDINONE D], the half-inhibitory concentration (IC50) was found to be 41 µM.
`O=c1[nH]cc(F)c(=O)[nH]1` [FLUOROURACIL]: the IC50 amounted to 37 µM. The IC50 values of the last two compounds are within 1.5-fold of each other.
